Experimental findings from a melting point compilation (Tetko et al.; mined from patent text by program, amines drawn as free bases though some values may be those of a salt) are described below.

Regarding `O=C(O)CCc1ccc(-c2nc3c(=O)n(CC4CCCCC4)c(=O)n(CC4CCCCC4)c3[nH]2)cc1`, the melting point (commonly the temperature, or range, at which the solid turns liquid) is greater than 300 °C.

With `O=C(O)c1cc(Br)nc(Br)c1`, the melting point was 179 to 187 °C.

Regarding `CN1OCC(=O)N(C(c2ccccc2)c2ccccc2)C1=S`, the melting point lay within 152 to 154 °C.

`CCCCCCCCCNC(C)C(=O)O` (stereo unspecified) displayed a melting point of 264 °C.

Compound `COc1ccc(NC(=O)C2CCc3c(OCc4ccccc4)cccc32)c(OC)c1` (stereo unspecified) displayed a melting point of 130 °C.

In turn, `CCOP(=O)(Cc1ccc(-c2nc3cccc(Cl)c3o2)cc1)OCC` had a melting point of 92 to 93 °C.

With `COc1cccc(CCN2C(=O)c3ccccc3C2(O)c2ccncc2)c1` (stereo unspecified), the melting point was 190 °C.

`Cc1nc(N2CCN(CC3CC3)C2=O)sc1C(=O)NCc1ccncc1`: the melting point was greater than 200 °C.

With `Cn1nc(-c2ccccc2)c(N)c1-c1ccccc1`, the melting point was 80 to 81 °C.

With `COC(=O)CC1CCN(C(=O)C2CCN(c3ccc(C#N)cn3)CC2)CC1`, the melting point lay within 112 to 115 °C.

Consider `CC(C)(C)CC1NC(C(=O)NC2CCC(O)CC2)C(c2cccc(Cl)c2F)C12C(=O)Nc1cc(Cl)ccc12` (stereo unspecified), for which the melting point amounted to 176 °C.

In the case of `O=[N+]([O-])c1ccc(OCc2ccc(F)cc2)cc1`, the melting point was 124 to 126 °C.

`COc1ccc(C(C#N)SC2CCCCC2)cc1OC` (stereo unspecified) yielded a melting point of 80 to 82 °C.

For `CCc1nnc2cc(C)c(-c3ccc(C(N)=O)cc3)nn12`, the melting point fell in the range of 210 to 213 °C.

In turn, `O=C(O)CCCCCc1nc2c(F)c(F)cc(F)c2s1` registered a melting point of 84 to 86 °C.

On to `CC(C)Cn1c(CO)c(OCCCC(F)(F)F)c2cc(OCc3ccccc3)ccc2c1=O`, for which the melting point fell in the range of 112 to 113 °C.

For the compound `O[C@@H]1c2cc3c(cc2CC[C@H]1NCCc1ccccc1)CCO3` (relative stereo), the melting point lay in the range of 144 to 148 °C.

In turn, `CNc1ncnc2c1c(=O)n(C)c(=O)n2C` had a melting point of 178 to 179 °C.

For the compound `O=C(O)c1cc(F)c(F)c(OC(F)F)c1F`, the melting point was 68 to 70 °C.

On to `O=C(OCc1ccccc1)c1ccc(C#Cc2ccccc2)cc1OCc1ccccc1`, for which the melting point is 98 to 100 °C.

The compound `CCC(=O)N[C@H]1CC[C@H](CCN2CCC(c3cccc4c3CCO4)CC2)CC1` displayed a melting point of 192 °C.

On to `COC(=O)[C@@H](Cc1ccccc1)NC(=O)OCc1cc2cc(-c3ccccc3)ccc2o1`, for which the melting point lay within 85 to 86 °C.

With `C=CCc1c(C)ccc(N2C(=O)c3ccccc3C2=O)c1OCc1ccccc1`, the melting point fell in the range of 107 to 109 °C.

The compound `CSC(=CC(=O)c1cncc(F)c1)SC` yielded a melting point of 150 to 152 °C.

Turning to `O=[N+]([O-])c1ccc2c(c1)CN(Cc1ccccc1)CC2`, the melting point was 85 to 86 °C.

In turn, `C=C(F)C[C@@H](C(=O)O)N(Cc1cccnc1)S(=O)(=O)c1ccc(OC)cc1` had a melting point of 172 °C.

Compound `C=CCOc1cc(C)c(OC(C)=O)c(C)c1C` returned a melting point of 40 to 41 °C.

Take `O=c1oc(-c2ccccc2)cc(O)c1SCCCc1ccccc1`: the melting point lay within 114 to 116 °C.

For `CCOC(=O)CCC(C)Oc1ccc2c(c1)C(N(CC)S(C)(=O)=O)CC(C)(C)O2` (stereo unspecified), the melting point is 65 to 67 °C.

The compound `CCOC(=O)c1sc(=O)[nH]c1C(F)(F)C(F)(F)F` gave a melting point of 95 to 97 °C.

On to `CC(=O)c1c2sc3ccccc3nc-2ccc1=O`, for which the melting point came out at 222 °C.

As for `O=C1CCC(O)(c2nc3ccccc3s2)C(Sc2ccccc2)(Sc2ccccc2)C1` (stereo unspecified), the melting point lay within 150 to 151 °C.

`COc1cc(SCCCc2ccc(-c3ccc(CCCSc4ccc(OCC(=O)O)c(OC)c4)cc3)cc2)ccc1OCC(=O)O` returned a melting point of 178 to 180 °C.

On to `CC1(C)CC(=O)Nc2ccc(N)cc21`, for which the melting point lay within 126 to 130 °C.

Take `CCOP(=O)(C=Cc1ccc([N+](=O)[O-])cc1)OCC`: the melting point fell in the range of 95 to 98 °C.

In turn, `O=S(=O)(NCCCCl)c1ccc(Nc2ncnc3cc(Cl)ccc23)cc1` came in with a melting point of 168 to 171 °C.

In the case of `O=C(Oc1ccc(O)c([N+](=O)[O-])c1)c1ccccc1`, the melting point worked out at 97 °C.

With `Cc1ccc2c(c1)c(-c1ccnc3c(C(F)(F)F)cccc13)c(C)n2CC(=O)O`, the melting point stood at 145 °C.

Compound `O=c1c2c(Cc3cccc(OC(F)(F)F)c3)n[nH]c2c2cccnc2n1-c1ccccc1` gave a melting point of 253 to 254 °C.

For the compound `Cc1nc(/C=C/c2ccc3ccccc3n2)cc(-n2nc(C)nc2C)n1`, the melting point was in the range of 153 to 155 °C.

Compound `O=c1c(-c2ccccc2)coc2cc(OCC3CO3)ccc12` (stereo unspecified) registered a melting point of 151 to 152 °C.

The compound `CCCCCCCCCCCCc1cc(CBr)on1` came in with a melting point of 31.5 to 35 °C.

Compound `CCC(=O)c1cc(C2(c3cccc(-c4cccnc4F)c3)N=C(N)N(C)C2=O)cs1` (stereo unspecified) yielded a melting point of 98 to 112 °C.

As for `CNc1ccsc1C(=O)OC`, the melting point fell in the range of 54 to 57 °C.

Consider `CCC(=O)C(Cc1c(F)cccc1F)C(=O)CC`, for which the melting point fell in the range of 55 to 56 °C.

`CN(C)C(=O)Nc1snc(S(C)=O)c1C#N` (stereo unspecified): the melting point lay in the range of 178 to 179 °C.

As for `COC(=O)OCC1OC(n2cc(C)c(=O)[nH]c2=O)CC1OS(C)(=O)=O` (stereo unspecified), the melting point lay within 70 to 72 °C.

As to `CNC(=C[N+](=O)[O-])NCc1cnc(Cl)s1`, the melting point is 181 °C.

With `O=C(Oc1ccccc1)c1ncn2c1CN(C(=O)N1CCCC1)c1ccccc1-2`, the melting point lay in the range of 196 to 199 °C.

As to `Cn1cc(-c2cnc3c(c2)ncn3Cc2ccc3ncccc3c2)cn1`, the melting point fell in the range of 150 to 152 °C.

As for `COc1ccc2c(c1)Sc1c(cc(OC)c(OC)c1Br)N2C`, the melting point fell in the range of 135 to 137 °C.

In turn, `O=C(O)CCCCCCCCCCc1cccs1` had a melting point of 41 to 42 °C.

Compound `O=C(NN=C(Cc1ccccc1)c1ccccn1)OCc1ccccc1` showed a melting point of 155 °C.

On to `COc1ccc(C=Cc2ccc(C#N)cc2)cc1`, for which the melting point lay within 146 to 148 °C.

In the case of `COc1ccccc1N1CCN(C2CCN(c3noc4ccccc34)CC2)CC1`, the melting point fell in the range of 71 to 73 °C.

Regarding `O=C(Nc1ccc2c(c1)OCO2)c1ccc([N+](=O)[O-])cc1`, the melting point lay within 231 to 234 °C.

`c1ccc(CSc2nc3ccccc3[nH]2)cc1` registered a melting point of 185 to 186 °C.

Turning to `C#CCOC(=O)c1ccc(Br)s1`, the melting point lay in the range of 65 to 68 °C.

Take `NS(=O)(=O)c1ccc(-c2cn(-c3nc(-c4ccc(Cl)cc4)cc(C(F)(F)F)n3)cn2)s1`: the melting point came to 284 °C.

As for `COC(=O)CC[C@H](NC(=O)c1ccc(CCn2cnc3nccc-3c2O)cc1)C(=O)OC`, the melting point is 170 to 172 °C.

In turn, `N#Cc1cccc(S(=O)(=O)N2CCn3c(c(C(N)=O)c(Cl)c3-c3ccccc3)C2)c1` had a melting point of 243 to 245 °C.

Turning to `COc1cc2c(cc1C(F)(F)F)N(C(=O)Nc1cc(F)cc(I)c1)CC2`, the melting point fell in the range of 221 to 224 °C.

With `O=C1CCCc2cc(=O)[nH]cc21`, the melting point lay in the range of 246 to 248 °C.

`COC(=O)c1ccc2sc(C)c(Br)c2c1`: the melting point was 84 to 85 °C.

On to `COc1ccc(Oc2c(C)cc([N+](=O)[O-])cc2C)cc1`, for which the melting point lay within 117 to 120 °C.

`Cc1cccc(-c2nc(C(C)C)[nH]c2-c2ccc(F)c(-c3ccc(CC4CNCCO4)cc3)c2)n1` (stereo unspecified) came in with a melting point of 147 to 161 °C.

As for `NCCC1(O)CCc2ccccc2C12CCCC2` (stereo unspecified), the melting point was in the range of 107 to 109 °C.

`CN1CC(CO)CC2(O)c3cccc4[nH]cc(c34)CC12` (stereo unspecified) came in with a melting point of 175 to 179 °C.

The compound `O=c1c(Cc2ccc(-c3ccccc3)cc2)coc2cc(OS(=O)(=O)C(F)(F)F)ccc12` came in with a melting point of 110 °C.

In turn, `COC(=O)c1cc(-c2ccc(C(F)(F)F)cc2)oc1COC(C)=O` yielded a melting point of 60 to 61 °C.

The compound `O=C(Nc1ccc(C(F)(F)F)cc1)C1=NN(c2cccc(Cl)c2)C(c2ccccc2)CC1` (stereo unspecified) gave a melting point of 183 to 184 °C.

The compound `CSc1cc(C)nc(SC)c1NC(=O)CCCCCCCSc1nc2ccccc2o1` yielded a melting point of 119 to 122 °C.

In turn, `O=C1CCCCN1Cc1ccc[nH]1` registered a melting point of 106 °C.

Compound `O=C(O)COc1c(Br)cc2oc(C(=O)c3ccccc3)cc2c1Br` had a melting point of 179 to 181 °C.

On to `CC(Br)=C(c1ccc(F)cc1)c1ccc(F)cc1`, for which the melting point lay in the range of 53 to 54 °C.

As to `COC(=O)c1cc(-c2ccc(C)cc2)n(-c2ccc(S(N)(=O)=O)cc2)n1`, the melting point lay within 138 to 139 °C.

Consider `CCOC1C=CC(=O)N1` (stereo unspecified), for which the melting point lay in the range of 50 to 52 °C.

In the case of `O=C(O)c1cc(-c2ccc(C(F)(F)F)cc2)c2c3c(ccc2c1)OCO3`, the melting point was in the range of 207 to 209 °C.

Turning to `CS(=O)(=O)c1ccc(-c2sc(COc3ccc(Cl)cc3)nc2-c2ccc(F)cc2)cc1`, the melting point fell in the range of 140 to 143 °C.

In turn, `N#CC1=C(c2ccccc2)CN(c2ccccc2)C1=O` yielded a melting point of 188 to 190 °C.

The compound `CCOC(=O)C(CCC(=O)c1ccc(F)cc1)(NC(C)=O)C(=O)OCC` displayed a melting point of 73 °C.

On to `CCCc1nc(SC(F)F)c(C(=O)O)n1Cc1ccc(-c2ccccc2S(=O)(=O)NC(=O)NCc2ccc(F)cc2)cc1`, for which the melting point came to 122 °C.

On to `CC(C)(C)OC(=O)N1CCN(c2cccc3c(Sc4ccccc4)c[nH]c23)CC1`, for which the melting point was 165 to 166 °C.

`COC(=O)c1cc(C)sc1NC(=O)C(C)C`: the melting point was 63 to 65 °C.

In turn, `CCOc1ccccc1C(=O)Nc1cccc(C)c1C(N)=O` came in with a melting point of 166 to 168 °C.

`CC(C)CC1(C(CC(C)N2C(=O)c3ccccc3C2=O)C(=O)NO)CCN(CCc2ccccc2)C1=O` (stereo unspecified) displayed a melting point of 113 to 114 °C.

In turn, `COC(=O)c1cc(-c2ccc(OC)cc2)nn(Cc2ccc([N+](=O)[O-])cc2)c1=O` had a melting point of 215 to 217 °C.

`COc1cc2c(cc1Br)CC(=O)NN=C2c1ccc([N+](=O)[O-])cc1`: the melting point lay within 245 to 256 °C.

In turn, `Cc1cccc(NC(=O)NCC(=O)N(CC(=O)Oc2ccccc2)c2ccccc2)c1` yielded a melting point of 206 °C.

Turning to `COc1cc(CCCO)ccc1OCc1coc(/C=C/c2ccccc2)n1`, the melting point is 95 to 96 °C.

`O=C(O)CCCCCCCCC1=CC(O)CC1=O` (stereo unspecified) yielded a melting point of 58 to 66 °C.
